Where “and” joins values, the source holds several entries; their conditions need not be identical. Identical values can stand only once.
Legend:
P. berghei-infected mice = details: antimalarials in clinical trials; cited from earlier work
P. berghei-GFP = test: In vivo efficacy, modified Thompson test
[1] = format: in vivo
P. falciparum = test: In vitro antimalarial activity as summarised in text; format: cell-based
[2] = Aqueous stability / parent compound release by quantitative HPLC; format: physicochemical; details: for parent compound released: release of parent compound 4
[3] = test system: P. falciparum clone W2/Indochina (chloroquine and pyrimethamine resistant); test: In vitro antimalarial activity, 3H-hypoxanthine incorporation, W2; format: cell-based; details: Table 2; means of at least two independent experiments
[4] = test system: P. falciparum TM90-C2B/Thailand (chloroquine, mefloquine, pyrimethamine, and atovaquone resistant); test: In vitro antimalarial activity, 3H-hypoxanthine incorporation, TM90-C2B; format: cell-based; details: Table 2; means of at least two independent experiments

C[C@H]1Cc2c([nH]c3cc(Cl)c(F)cc23)[C@@]2(N1)C(=O)Nc1ccc(Cl)cc12 [KAE609]
single oral (PO) curative dose, single exposure radical cure (P. berghei-infected mice): 100 mg/kg

CS(=O)(=O)c1ccc(-c2cnc(N)c(-c3ccc(C(F)(F)F)nc3)c2)cc1 [MMV390048]
single oral (PO) curative dose, single exposure radical cure (P. berghei-infected mice): 30 mg/kg

c1cc([C@H]2CC[C@]3(CC2)OOC2(O3)C3CC4CC(C3)CC2C4)ccc1OCCN1CCOCC1 (stereo partly shown) [OZ439]
single oral (PO) curative dose, single exposure radical cure (P. berghei-infected mice): 20 mg/kg

COc1cc2[nH]c(C)c(-c3ccc(Oc4ccc(OC(F)(F)F)cc4)cc3F)c(=O)c2cc1Cl [compound 2, 6-chloro-3-(2-fluoro-4-(4-(trifluoromethoxy)phenoxy)phenyl)-7-methoxy-2-methyl-4(1H)-quinolone]
in vivo activity (P. berghei-GFP; single dose of 10 mg/kg, 0.5% aqueous HEC): completely inactive

COc1cc2[nH]c(C)c(-c3ccc(C(F)(F)F)cc3)c(=O)c2cc1Cl [compound 4, 6-chloro-7-methoxy-2-methyl-3-(4-(trifluoromethyl)phenyl)-4(1H)-quinolone]
Tmax ([1]; plasma, po, 50 mg/kg): 2 h | maximum plasma concentration of 4 ([1]; single oral 50 mg/kg of 4, 0.5% aqueous HEC): 365 nM

CCOC(=O)Oc1c(-c2ccccc2C)c(C)nc2cc(OC)c(Cl)cc12 [compound 11, 6-Chloro-7-methoxy-2-methyl-3-(o-tolyl)-4-((ethoxycarbonyl)oxy)quinoline]
fold less potent than reference compound 3 (P. falciparum; in vitro antimalarial activity, Table 1): 10 fold

CN1CCCOC1=O [compound 13, 3-Methyl-1,3-oxazinan-2-one]
EC50 (P. falciparum; Plasmodium falciparum): > 4 µM

CNCCOC(=O)OCOc1c(-c2ccc(C(F)(F)F)cc2)c(C)nc2cc(OC)c(Cl)cc12.Cl [compound 27, 6-Chloro-7-methoxy-2-methyl-3-(4-(trifluoromethyl)phenyl)-4-(((2-(methylammonio)ethoxycarbonyl)oxy)methoxy)quinoline, chloride salt]
parent compound released ([2]; in 1 h at pH 7.0): > 90% | parent compound released ([2]; in 10 h at pH 4.0): > 25%

CNCCCOC(=O)OCOc1c(-c2ccc(C(F)(F)F)cc2)c(C)nc2cc(OC)c(Cl)cc12.Cl [compound 28, 6-Chloro-7-methoxy-2-methyl-3-(4-(trifluoromethyl)phenyl)-4-(((3-(methylammonio)propyloxycarbonyl)oxy)methoxy)quinoline, chloride salt]
Suppression [%] day 6 PI ± S.D. (P. berghei-GFP; 10 mg/kg PO once a day on days 3–5 PI, 0.5% aqueous HEC, mice): 82 ± 0.6% | extension of life span of treated animals relative to untreated controls (P. berghei-GFP; 10 and 50 mg/kg PO days 3–5 PI): does not significantly extend | parent compound released ([2]; in 5 h at pH 7.0): > 55% | stability at low pH values ([2]; low pH values): stable

CNCCCOC(=O)OCOc1c(-c2ccc(Oc3ccc(OC(F)(F)F)cc3)cc2F)c(C)nc2cc(OC)c(Cl)cc12.Cl [compound 30, 6-Chloro-7-methoxy-2-methyl-3-(2-fluoro-4-(4-(trifluoromethoxy)phenoxy)phenyl)-4-(((3-(methylammonio)propyloxycarbonyl)oxy)methoxy)quinoline, chloride salt]
single oral dose producing cures (P. berghei-GFP; P. berghei-infected mice, single dose, no advanced formulation): 3 mg/kg | average day of death (P. berghei-GFP; single dose 1 mg/kg PO, all 5 mice): > 13 days | number of cures (P. berghei-GFP; single dose 3 mg/kg PO on day 3 PI, 3 mg/kg): 5 out of 5 and 5/5 | number of cures (P. berghei-GFP; single dose 10 mg/kg PO on day 3 PI, 10 mg/kg): 5 out of 5 and 5/5 | clearance ([1]; single oral administration, 0.5% aqueous HEC): low clearance

formaldehyde [compound 14]
W2 pEC50 [3]: inactive | EC50 (P. falciparum; release byproducts, devoid of antimalarial activity): > 4 µM | C2B pEC50 [4]: inactive

— publication PMC8904075 (Journal of medicinal chemistry, 2021)
